According to US20210161131A1, “cis-p-Menthane-1,8-Di-secondary Amine Compounds as well as Their Preparation Methods and Application in Weed Control” (RESEARCH INSTITUTE OF FORESTRY NEW TECHNOLOGY, CHINESE …, priority 2019, published 2021):

Test system: barnyard grass seeds
Experiment: Petri dish seed germination method: inhibition of root and stem growth of barnyard grass
Format: in vivo
Details: 96 hours incubation
Protocol: (§1) Step 2: Accurately weigh 1 mmol cis-p-menthane-1,8-di-Schiff base compounds and cis-p-menthane-1,8-di-secondary amine compounds respectively, dissolve each of them with 0.25 mL DMF, and add a drop of Tween 80 in each resulted solution. After being fully dissolved, each solution is transferred to a 100 mL volumetric flask respectively and then diluted to the mark with distilled water to obtain a solution with a concentration of 10 mmol/L as the mother liquor. The two-fold dilution method is used to prepare diluted solutions with a series of concentrations (the concentrations of DMF and Tween 80 in the diluted solutions are the same as those in the mother liquor).
(§2) Barnyard grass seeds are placed in a 28° C. incubator and are soaked in an appropriate amount of distilled water for 12 hours there. After the clean water is filtered out, the seeds are then placed in the 28° C. incubator for 24 hours to germinate. Spread 2 pieces of filter paper in each of several Petri dishes, and place 10 barnyard grass seeds with the same size in each dish. Repeat each treatment for three times The dishes are divided into two groups: test dishes and control dishes. Add into each test dish 10 mL of the sample solution with the corresponding concentration of the target compound, and add into each control dish the same amount of the mixture of water, DMF and Tween 80 as the blank control. Add 10 seeds to each of the dishes (both test dishes and control dishes), place them in an artificial climate incubator, and incubate them for 96 hours under a temperature of 28° C., an illumination of 5000 1×, a photoperiod of day:night=16:8 and a relative humidity of 70-80%. The experimental data is processed and analyzed with DPS software to calculate the inhibition rate (y) of cis-p-menthane-1,8-di-secondary amine compounds on the root growth or stem growth of barnyard grass seeds.
Wherein, y is the inhibition rate of root growth or stem growth (%), x0 is the root length or stem length of the control, and x1 is the root length or stem length of the sample.
as §1, with “Accurately” for “Step 2: Accurately”, “cis-p-menthane-1,8-bis-(4-chlorophenyl)Schiff” for “cis-p-menthane-1,8-di-Schiff”, “base” for “base compounds”, “cis-p-menthane-1,8-bis-(4-chlorobenzyl)amine” for “cis-p-menthane-1,8-di-secondary amine compounds”, “(5 mmol/L, 2.5 mmol/L, 1.25 mmol/L, 0.625 mmol/L, 0.3125 mmol/L and 0.1563 mmol/L; the” for “(the”
as §2, with “placed in a 30° C. incubator” for “placed in the 28° C. incubator”, “in each Petri dish,” for “in each of several Petri dishes,”, “each Petri dish, and place” for “several Petri dishes, and place”, “with the above corresponding concentration” for “with the corresponding concentration”, “with DPS software.” for “with DPS software to calculate the inhibition rate (y) of cis-p-menthane-1,8-di-secondary amine compounds on the root growth or stem growth of barnyard grass seeds.”

CC1(NCc2ccc(F)cc2)CCC(C(C)(C)NCc2ccc(F)cc2)CC1 (stereo not drawn) [cis-p-menthane-1,8-bis-(4-fluorobenzyl)amine]
inhibition rate on the root growth of barnyard grass seeds (0.15625 mmol/L): 38.2% | inhibition rate on the stem growth of barnyard grass seeds (0.15625 mmol/L): 7.2% | inhibition rate on the root growth of barnyard grass seeds (0.3125 mmol/L): 48.3% | inhibition rate on the stem growth of barnyard grass seeds (0.3125 mmol/L): 10.5% | inhibition rate on the root growth of barnyard grass seeds (0.625 mmol/L): 78.6% | inhibition rate on the stem growth of barnyard grass seeds (0.625 mmol/L): 58.3% | inhibition rate on the root growth of barnyard grass seeds (1.25 mmol/L): 78.6% | inhibition rate on the stem growth of barnyard grass seeds (1.25 mmol/L): 75.1% | inhibition rate on the root growth of barnyard grass seeds (2.5 mmol/L): 98.6% | inhibition rate on the stem growth of barnyard grass seeds (2.5 mmol/L): 85.9% | inhibition rate on the root growth of barnyard grass seeds (5 mmol/L): 100.0% | inhibition rate on the stem growth of barnyard grass seeds (5 mmol/L): 100.0%

COc1ccc(C=NC2(C)CCC(C(C)(C)N=Cc3ccc(OC)cc3)CC2)cc1 (stereo not drawn) [cis-p-menthane-1,8-bis-(4-methoxybenzyl)Schiff base, reference compound]
inhibition rate on the root growth of barnyard grass seeds (0.3125 mmol/L): 70.7% | inhibition rate on the stem growth of barnyard grass seeds (0.3125 mmol/L): 15.4% | inhibition rate on the root growth of barnyard grass seeds (0.625 mmol/L): 66.7% | inhibition rate on the stem growth of barnyard grass seeds (0.625 mmol/L): 6.9% | inhibition rate on the root growth of barnyard grass seeds (1.25 mmol/L): 55.3% | inhibition rate on the stem growth of barnyard grass seeds (1.25 mmol/L): 4% | inhibition rate on the root growth of barnyard grass seeds (2.5 mmol/L): 28.1% | inhibition rate on the stem growth of barnyard grass seeds (2.5 mmol/L): 8.0% | inhibition rate on the root growth of barnyard grass seeds (5 mmol/L): 7.6% | inhibition rate on the stem growth of barnyard grass seeds (5 mmol/L): 2.1%

CC(C)(NCc1ccc(Br)cc1)[C@H]1CC[C@@](C)(NCc2ccc(Br)cc2)CC1 [cis-p-menthane-1,8-bis-(4-bromobenzyl)amine]
inhibition rate on the root growth of barnyard grass seeds (0.15625 mmol/L): 30.7% | inhibition rate on the stem growth of barnyard grass seeds (0.15625 mmol/L): 25.2% | inhibition rate on the root growth of barnyard grass seeds (0.3125 mmol/L): 57.6% | inhibition rate on the stem growth of barnyard grass seeds (0.3125 mmol/L): 35.4% | inhibition rate on the root growth of barnyard grass seeds (0.625 mmol/L): 83.4% | inhibition rate on the stem growth of barnyard grass seeds (0.625 mmol/L): 51.7% | inhibition rate on the root growth of barnyard grass seeds (1.25 mmol/L): 89.6% | inhibition rate on the stem growth of barnyard grass seeds (1.25 mmol/L): 58.5% | inhibition rate on the root growth of barnyard grass seeds (2.5 mmol/L): 97.4% | inhibition rate on the stem growth of barnyard grass seeds (2.5 mmol/L): 88.2% | inhibition rate on the root growth of barnyard grass seeds (5 mmol/L): 100.0% | inhibition rate on the stem growth of barnyard grass seeds (5 mmol/L): 92.3%

CC(C)(N=Cc1ccc(Cl)cc1)[C@H]1CC[C@@](C)(N=Cc2ccc(Cl)cc2)CC1 [cis-p-menthane-1,8-bis-(4-chlorophenyl) Schiff base, reference compound]
inhibition rate on the root growth of barnyard grass seeds (0.3125 mmol/L): −5.0% | inhibition rate on the stem growth of barnyard grass seeds (0.3125 mmol/L): 1.4% | inhibition rate on the root growth of barnyard grass seeds (0.625 mmol/L): 24.3% | inhibition rate on the stem growth of barnyard grass seeds (0.625 mmol/L): 4.6% | inhibition rate on the root growth of barnyard grass seeds (1.25 mmol/L): 76.7% | inhibition rate on the stem growth of barnyard grass seeds (1.25 mmol/L): 23.9% | inhibition rate on the root growth of barnyard grass seeds (2.5 mmol/L): 49.9% | inhibition rate on the stem growth of barnyard grass seeds (2.5 mmol/L): 22.8% | inhibition rate on the root growth of barnyard grass seeds (5 mmol/L): 92.4% | inhibition rate on the stem growth of barnyard grass seeds (5 mmol/L): 20.9%

Cc1ccc(CNC(C)(C)[C@H]2CC[C@@](C)(NCc3ccc(C)cc3)CC2)cc1 [cis-p-menthane-1,8-bis-(4-methylbenzyl)amine]
inhibition rate on the root growth of barnyard grass seeds (0.15625 mmol/L): 42.5% | inhibition rate on the stem growth of barnyard grass seeds (0.15625 mmol/L): 42.1% | inhibition rate on the root growth of barnyard grass seeds (0.3125 mmol/L): 86.6% | inhibition rate on the stem growth of barnyard grass seeds (0.3125 mmol/L): 64.6% | inhibition rate on the root growth of barnyard grass seeds (0.625 mmol/L): 89.6% | inhibition rate on the stem growth of barnyard grass seeds (0.625 mmol/L): 65.9% | inhibition rate on the root growth of barnyard grass seeds (1.25 mmol/L): 91.9% | inhibition rate on the stem growth of barnyard grass seeds (1.25 mmol/L): 74.7% | inhibition rate on the root growth of barnyard grass seeds (2.5 mmol/L): 95.2% | inhibition rate on the stem growth of barnyard grass seeds (2.5 mmol/L): 87.1% | inhibition rate on the root growth of barnyard grass seeds (5 mmol/L): 100.0% | inhibition rate on the stem growth of barnyard grass seeds (5 mmol/L): 93.3%

CC1(NCc2cccnc2)CCC(C(C)(C)NCc2cccnc2)CC1 (stereo not drawn) [cis-p-menthane-1,8-bis(pyridine-3-methyl)amine]
inhibition rate on the root growth of barnyard grass seeds (0.15625 mmol/L): 5.7% | inhibition rate on the stem growth of barnyard grass seeds (0.15625 mmol/L): 38.0% | inhibition rate on the root growth of barnyard grass seeds (0.3125 mmol/L): 10.2% | inhibition rate on the stem growth of barnyard grass seeds (0.3125 mmol/L): 30.6% | inhibition rate on the root growth of barnyard grass seeds (0.625 mmol/L): 19.2% | inhibition rate on the stem growth of barnyard grass seeds (0.625 mmol/L): 41.5% | inhibition rate on the root growth of barnyard grass seeds (1.25 mmol/L): 41.4% | inhibition rate on the stem growth of barnyard grass seeds (1.25 mmol/L): 44.6% | inhibition rate on the root growth of barnyard grass seeds (2.5 mmol/L): 86.1% | inhibition rate on the stem growth of barnyard grass seeds (2.5 mmol/L): 65.3% | inhibition rate on the root growth of barnyard grass seeds (5 mmol/L): 95.2% | inhibition rate on the stem growth of barnyard grass seeds (5 mmol/L): 84.9%

CSc1ccc(CNC2(C)CCC(C(C)(C)NCc3ccc(SC)cc3)CC2)cc1 (stereo not drawn) [cis-p-menthane-1,8-bis-(4-methylthiobenzyl)amine]
inhibition rate on the root growth of barnyard grass seeds (0.15625 mmol/L): 32.0% | inhibition rate on the stem growth of barnyard grass seeds (0.15625 mmol/L): 22.8% | inhibition rate on the root growth of barnyard grass seeds (0.3125 mmol/L): 58.1% | inhibition rate on the stem growth of barnyard grass seeds (0.3125 mmol/L): 66.0% | inhibition rate on the root growth of barnyard grass seeds (0.625 mmol/L): 77.2% | inhibition rate on the stem growth of barnyard grass seeds (0.625 mmol/L): 66.2% | inhibition rate on the root growth of barnyard grass seeds (1.25 mmol/L): 90.8% | inhibition rate on the stem growth of barnyard grass seeds (1.25 mmol/L): 83.4% | inhibition rate on the root growth of barnyard grass seeds (2.5 mmol/L): 96.0% | inhibition rate on the stem growth of barnyard grass seeds (2.5 mmol/L): 77.5% | inhibition rate on the root growth of barnyard grass seeds (5 mmol/L): 98.5% | inhibition rate on the stem growth of barnyard grass seeds (5 mmol/L): 85.1%

CC1(NCc2ccc(Cl)cc2)CCC(C(C)(C)NCc2ccc(Cl)cc2)CC1 (stereo not drawn) [cis-p-menthane-1,8-bis-(4-chlorobenzyl)amine]
inhibition rate on the root growth of barnyard grass seeds (0.15625 mmol/L): 31.4% | inhibition rate on the stem growth of barnyard grass seeds (0.15625 mmol/L): 35.7% | inhibition rate on the root growth of barnyard grass seeds (0.3125 mmol/L): 57.1% | inhibition rate on the stem growth of barnyard grass seeds (0.3125 mmol/L): 41.6% | inhibition rate on the root growth of barnyard grass seeds (0.625 mmol/L): 87.3% | inhibition rate on the stem growth of barnyard grass seeds (0.625 mmol/L): 65.8% | inhibition rate on the root growth of barnyard grass seeds (1.25 mmol/L): 90.8% | inhibition rate on the stem growth of barnyard grass seeds (1.25 mmol/L): 63.4% | inhibition rate on the root growth of barnyard grass seeds (2.5 mmol/L): 91.6% | inhibition rate on the stem growth of barnyard grass seeds (2.5 mmol/L): 68.0% | inhibition rate on the root growth of barnyard grass seeds (5 mmol/L): 96.7% | inhibition rate on the stem growth of barnyard grass seeds (5 mmol/L): 75.1%

CC1(NCc2ccco2)CCC(C(C)(C)NCc2ccco2)CC1 (stereo not drawn) [cis-p-menthane-1,8-bis(furan-2-methyl)amine]
inhibition rate on the root growth of barnyard grass seeds (0.15625 mmol/L): 0% | inhibition rate on the stem growth of barnyard grass seeds (0.15625 mmol/L): 0% | inhibition rate on the root growth of barnyard grass seeds (0.3125 mmol/L): 36.3% | inhibition rate on the stem growth of barnyard grass seeds (0.3125 mmol/L): 8.6% | inhibition rate on the root growth of barnyard grass seeds (0.625 mmol/L): 39.0% | inhibition rate on the stem growth of barnyard grass seeds (0.625 mmol/L): 16.1% | inhibition rate on the root growth of barnyard grass seeds (1.25 mmol/L): 48.8% | inhibition rate on the stem growth of barnyard grass seeds (1.25 mmol/L): 19.3% | inhibition rate on the root growth of barnyard grass seeds (2.5 mmol/L): 72.7% | inhibition rate on the stem growth of barnyard grass seeds (2.5 mmol/L): 41.1% | inhibition rate on the root growth of barnyard grass seeds (5 mmol/L): 92.7% | inhibition rate on the stem growth of barnyard grass seeds (5 mmol/L): 65.3%

CC1(NCc2ccc(C(F)(F)F)cc2)CCC(C(C)(C)NCc2ccc(C(F)(F)F)cc2)CC1 (stereo not drawn) [cis-p-menthane-1,8-bis-(4-trifluoromethylbenzyl)amine]
inhibition rate on the root growth of barnyard grass seeds (0.15625 mmol/L): 1.0% | inhibition rate on the stem growth of barnyard grass seeds (0.15625 mmol/L): 11.6% | inhibition rate on the root growth of barnyard grass seeds (0.3125 mmol/L): 62.8% | inhibition rate on the stem growth of barnyard grass seeds (0.3125 mmol/L): 42.2% | inhibition rate on the root growth of barnyard grass seeds (0.625 mmol/L): 82.3% | inhibition rate on the stem growth of barnyard grass seeds (0.625 mmol/L): 55.1% | inhibition rate on the root growth of barnyard grass seeds (1.25 mmol/L): 86.1% | inhibition rate on the stem growth of barnyard grass seeds (1.25 mmol/L): 67.0% | inhibition rate on the root growth of barnyard grass seeds (2.5 mmol/L): 100.0% | inhibition rate on the stem growth of barnyard grass seeds (2.5 mmol/L): 83.4% | inhibition rate on the root growth of barnyard grass seeds (5 mmol/L): 100.0% | inhibition rate on the stem growth of barnyard grass seeds (5 mmol/L): 78.5%
